± gives the expanded uncertainty stated by the source.
Test: xn = mol fraction of the nth substance listed
Conditions: 101 kPa, Liquid, Vibrating tube method

NC=O [formamide] + O
mass density (308.15 K, x1 = 0.9753): 1119.88 ± 0.18 kg/m3 | mass density (308.15 K, x1 = 0.9847): 1120.39 ± 0.18 kg/m3 | mass density (308.15 K, x1 = 0.9897): 1120.66 ± 0.18 kg/m3 | mass density (308.15 K, x1 = 0.9959): 1121.01 ± 0.19 kg/m3 | mass density (308.15 K, x1 = 1): 1121.22 ± 0.18 kg/m3 | mass density (323.15 K, x1 = 0.00244): 988.848 ± 0.049 kg/m3 | mass density (323.15 K, x1 = 0.00515): 989.627 ± 0.049 kg/m3 | mass density (323.15 K, x1 = 0.0086): 990.671 ± 0.049 kg/m3 | mass density (323.15 K, x1 = 0.02032): 994.128 ± 0.047 kg/m3 | mass density (323.15 K, x1 = 0.03478): 998.15 ± 0.046 kg/m3 | mass density (323.15 K, x1 = 0.04976): 1002.11 ± 0.046 kg/m3 | mass density (323.15 K, x1 = 0.06674): 1006.45 ± 0.049 kg/m3 | mass density (323.15 K, x1 = 0.08229): 1010.31 ± 0.051 kg/m3 | mass density (323.15 K, x1 = 0.1171): 1018.36 ± 0.058 kg/m3 | mass density (323.15 K, x1 = 0.1745): 1030.08 ± 0.065 kg/m3 | mass density (323.15 K, x1 = 0.2169): 1037.62 ± 0.071 kg/m3 | mass density (323.15 K, x1 = 0.2557): 1043.94 ± 0.075 kg/m3 | mass density (323.15 K, x1 = 0.3026): 1050.89 ± 0.081 kg/m3 | mass density (323.15 K, x1 = 0.351): 1057.31 ± 0.087 kg/m3 | mass density (323.15 K, x1 = 0.4027): 1063.57 ± 0.093 kg/m3 | mass density (323.15 K, x1 = 0.4487): 1068.62 ± 0.099 kg/m3 | mass density (323.15 K, x1 = 0.4886): 1072.62 ± 0.1 kg/m3 | mass density (323.15 K, x1 = 0.5601): 1079.26 ± 0.11 kg/m3 | mass density (323.15 K, x1 = 0.5916): 1081.99 ± 0.12 kg/m3 | mass density (323.15 K, x1 = 0.6674): 1087.95 ± 0.13 kg/m3 | mass density (323.15 K, x1 = 0.7066): 1090.81 ± 0.13 kg/m3 | mass density (323.15 K, x1 = 0.7495): 1093.69 ± 0.14 kg/m3 | mass density (323.15 K, x1 = 0.7931): 1096.56 ± 0.14 kg/m3 | mass density (323.15 K, x1 = 0.8601): 1100.66 ± 0.15 kg/m3 | mass density (323.15 K, x1 = 0.8996): 1102.97 ± 0.16 kg/m3 | mass density (323.15 K, x1 = 0.948): 1105.65 ± 0.17 kg/m3 | mass density (323.15 K, x1 = 0.9753): 1107.13 ± 0.17 kg/m3 | mass density (323.15 K, x1 = 0.9847): 1107.62 ± 0.17 kg/m3 | mass density (323.15 K, x1 = 0.9897): 1107.9 ± 0.17 kg/m3 | mass density (323.15 K, x1 = 0.9959): 1108.24 ± 0.18 kg/m3 | mass density (323.15 K, x1 = 1): 1108.46 ± 0.17 kg/m3 | mass density (333.15 K, x1 = 0.00244): 983.879 ± 0.052 kg/m3 | mass density (333.15 K, x1 = 0.00515): 984.704 ± 0.052 kg/m3 | mass density (333.15 K, x1 = 0.0086): 985.696 ± 0.051 kg/m3 | mass density (333.15 K, x1 = 0.02032): 988.955 ± 0.05 kg/m3 | mass density (333.15 K, x1 = 0.03478): 992.755 ± 0.048 kg/m3 | mass density (333.15 K, x1 = 0.04976): 996.5 ± 0.047 kg/m3 | mass density (333.15 K, x1 = 0.06674): 1000.6 ± 0.046 kg/m3 | mass density (333.15 K, x1 = 0.08229): 1004.2 ± 0.048 kg/m3 | mass density (333.15 K, x1 = 0.1171): 1011.84 ± 0.055 kg/m3 | mass density (333.15 K, x1 = 0.1745): 1023.19 ± 0.062 kg/m3 | mass density (333.15 K, x1 = 0.2169): 1030.56 ± 0.067 kg/m3 | mass density (333.15 K, x1 = 0.2557): 1036.75 ± 0.072 kg/m3 | mass density (333.15 K, x1 = 0.3026): 1043.42 ± 0.077 kg/m3 | mass density (333.15 K, x1 = 0.351): 1049.67 ± 0.083 kg/m3 | mass density (333.15 K, x1 = 0.4027): 1055.76 ± 0.089 kg/m3 | mass density (333.15 K, x1 = 0.4487): 1060.68 ± 0.094 kg/m3 | mass density (333.15 K, x1 = 0.4886): 1064.58 ± 0.099 kg/m3 | mass density (333.15 K, x1 = 0.5601): 1071.15 ± 0.11 kg/m3 | mass density (333.15 K, x1 = 0.5916): 1073.78 ± 0.11 kg/m3 | mass density (333.15 K, x1 = 0.6674): 1079.63 ± 0.12 kg/m3 | mass density (333.15 K, x1 = 0.7066): 1082.46 ± 0.13 kg/m3 | mass density (333.15 K, x1 = 0.7495): 1085.28 ± 0.13 kg/m3 | mass density (333.15 K, x1 = 0.7931): 1088.11 ± 0.14 kg/m3 | mass density (333.15 K, x1 = 0.8601): 1092.16 ± 0.15 kg/m3 | mass density (333.15 K, x1 = 0.8996): 1094.46 ± 0.15 kg/m3 | mass density (333.15 K, x1 = 0.948): 1097.1 ± 0.16 kg/m3 | mass density (333.15 K, x1 = 0.9753): 1098.56 ± 0.16 kg/m3 | mass density (333.15 K, x1 = 0.9847): 1099.05 ± 0.17 kg/m3 | mass density (333.15 K, x1 = 0.9897): 1099.33 ± 0.17 kg/m3 | mass density (333.15 K, x1 = 0.9959): 1099.68 ± 0.18 kg/m3 | mass density (333.15 K, x1 = 1): 1099.88 ± 0.17 kg/m3

Reference: the NIST ThermoML archive (doi:10.1021/acs.jced.6b00786)
